Test results published in ChEMBL document CHEMBL3232849, “Structure-activity relationship studies toward the discovery of selective apelin receptor agonists” (J Med Chem, 2014).
The source made the active and inactive calls. No cut-off for these calls is given here.

What was measured:
Apelin receptor [1] = molecular target: T1, Apelin receptor (Homo sapiens, UniProt P35414); experiment: Displacement of [125I]-pE13F from human apelin receptor expressed in CHO cell membranes after 1 hr by gamma counting analysis
T1 sequence (P35414 whole entry): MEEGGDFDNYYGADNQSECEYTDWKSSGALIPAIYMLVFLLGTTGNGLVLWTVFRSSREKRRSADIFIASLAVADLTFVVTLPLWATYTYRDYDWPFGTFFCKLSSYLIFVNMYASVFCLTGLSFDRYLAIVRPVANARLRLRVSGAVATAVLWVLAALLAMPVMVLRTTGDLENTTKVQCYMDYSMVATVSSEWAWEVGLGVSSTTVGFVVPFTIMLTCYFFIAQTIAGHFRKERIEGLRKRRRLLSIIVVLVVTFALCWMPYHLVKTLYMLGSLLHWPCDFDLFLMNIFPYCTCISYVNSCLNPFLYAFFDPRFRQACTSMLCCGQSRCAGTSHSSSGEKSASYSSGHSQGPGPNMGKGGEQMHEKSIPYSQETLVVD

[2] = molecular target: T2, Apelin receptor (Rattus norvegicus) (UniProt Q9JHG3); experiment: Agonist activity at rat apelin receptor expressed in CHO cell membranes coexpressing EGFP assessed as receptor internalization at 100 uM after 20 mins by confocal microscopic analysis; type: cell-based
T2 sequence (whole entry): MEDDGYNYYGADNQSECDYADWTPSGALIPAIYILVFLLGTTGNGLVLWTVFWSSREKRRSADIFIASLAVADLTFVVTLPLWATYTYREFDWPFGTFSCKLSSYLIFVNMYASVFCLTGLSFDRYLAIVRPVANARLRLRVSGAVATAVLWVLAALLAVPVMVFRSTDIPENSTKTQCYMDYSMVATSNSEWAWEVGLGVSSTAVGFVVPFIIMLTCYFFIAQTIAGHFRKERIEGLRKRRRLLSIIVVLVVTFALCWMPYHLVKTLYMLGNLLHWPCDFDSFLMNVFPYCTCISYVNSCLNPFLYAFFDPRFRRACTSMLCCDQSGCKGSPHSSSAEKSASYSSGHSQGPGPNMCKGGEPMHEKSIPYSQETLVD

[3] = molecular target: T2, Apelin receptor (Rattus norvegicus); experiment: (§1) Agonist activity at rat apelin receptor expressed in CHO cell membranes coexpressing EGFP assessed as inhibition of forskolin-induced cAMP production after 30 mins by fluorescence analysis; type: functional, cell-based
[4] = molecular target: T2, Apelin receptor (Rattus norvegicus); experiment: Agonist activity at rat apelin receptor expressed in CHO cell membranes coexpressing EGFP assessed as inhibition of forskolin-induced cAMP production after 30 mins by fluorescence analysis relative to control; type: functional, cell-based
[5] = Dissociation constant, pKa of the compound in water at 2 mM by potentiometric titration analysis; type: physicochemical
[6] = molecular target: T2, Apelin receptor (Rattus norvegicus); experiment: Agonist activity at rat apelin receptor expressed in CHO cell membranes coexpressing EGFP assessed as receptor internalization at 100 nM after 20 mins by confocal microscopic analysis; type: cell-based
[7] = molecular target: T3, Type-1 angiotensin II receptor (Homo sapiens, UniProt P30556); experiment: Displacement of [125I]-angiotensin 2 from human angiotensin 2 type-1 receptor expressed in CHO cell membranes after 1 hr by gamma counting analysis
T3 sequence (P30556 whole entry): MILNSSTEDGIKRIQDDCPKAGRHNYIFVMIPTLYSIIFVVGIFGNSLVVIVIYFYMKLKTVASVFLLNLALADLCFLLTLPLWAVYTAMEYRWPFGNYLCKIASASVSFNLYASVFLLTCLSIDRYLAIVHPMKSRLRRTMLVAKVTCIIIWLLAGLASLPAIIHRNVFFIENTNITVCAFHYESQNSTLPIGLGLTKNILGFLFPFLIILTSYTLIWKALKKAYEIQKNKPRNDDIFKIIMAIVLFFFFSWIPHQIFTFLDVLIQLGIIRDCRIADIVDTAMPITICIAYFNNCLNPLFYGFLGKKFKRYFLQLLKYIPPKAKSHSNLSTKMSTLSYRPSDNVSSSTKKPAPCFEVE

Apelin receptor [8] = molecular target: T4, Apelin receptor (Rattus norvegicus, UniProt Q9JHG3); experiment: as §1; type: functional, cell-based
T4 sequence (Q9JHG3 whole entry): T2 sequence (whole entry)

[9] = Half life in mouse plasma at 5 uM at 37 degC by LC-MS analysis; type: ADME, cell-free

Structure (SMILES) | Ki (Apelin receptor [1]) | Activity [2] | also measured
CC(=O)NCCCC[C@H](NC(=O)Cc1csc(=N)n1C)C(=O)N[C@@H](Cc1cn(Cc2ccccc2)c[n+]1C)C(=O)NC1CCN(C)CC1 | > 100 µM | – | –
CCN(CC)c1ccc2c(-c3ccc(S(=O)(=O)NCCCCCCCCCCCCNC(=O)NCCCC[C@H](NC(=O)Cc4csc(=N)n4C)C(=O)N[C@@H](Cc4cn(Cc5ccccc5)c[n+]4C)C(=O)NC4CCN(C)CC4)cc3S(=O)(=O)O)c3ccc(=[N+](CC)CC)cc-3oc2c1 [listing 1 of 2 here] | 0.43 µM | – | –
CCN(CC)c1ccc2c(-c3ccc(S(=O)(=O)NCCCC[C@H](NC(=O)Cc4csc(=N)n4C)C(=O)N[C@@H](Cc4cn(Cc5ccccc5)cn4)C(=O)NC4CCN(C)CC4)cc3S(=O)(=O)[O-])c3ccc(=[N+](CC)CC)cc-3oc2c1 | 0.96 µM | Active | –
CCN(CC)c1ccc2c(-c3ccc(S(=O)(=O)NCCCCCCCCCCCCNC(=O)NCCCC[C@H](NC(=O)Cc4csc(=N)n4C)C(=O)N[C@@H](Cc4cn(Cc5ccccc5)c[n+]4C)C(=O)NC4CCN(C)CC4)cc3S(=O)(=O)[O-])c3ccc(=[N+](CC)CC)cc-3oc2c1 | – | Active | inhibition [3]: Dose-dependent effect; Imax [4]: 100%
CCN(CC)c1ccc2c(-c3ccc(S(=O)(=O)NCCCC[C@H](NC(=O)Cc4csc(=N)n4C)C(=O)N[C@@H](Cc4cn(Cc5ccccc5)c[n+]4C)C(=O)NCC4CCN(C)CC4)cc3S(=O)(=O)[O-])c3ccc(=[N+](CC)CC)cc-3oc2c1 | 0.18 µM | Active | –
CCN(CC)c1ccc2c(-c3ccc(S(=O)(=O)NCCCC[C@H](NC(C)=O)C(=O)N[C@@H](Cc4cn(Cc5ccccc5)c[n+]4C)C(=O)NC4CCN(C)CC4)cc3S(=O)(=O)O)c3ccc(=[N+](CC)CC)cc-3oc2c1 | 1.2 µM | – | –
CCN(CC)c1ccc2c(-c3ccc(S(=O)(=O)NCCCC[C@H](NC(=O)Cc4csc(=N)n4C)C(=O)N[C@@H](Cc4cn(Cc5ccccc5)c[n+]4C)C(=O)NC4CCOCC4)cc3S(=O)(=O)[O-])c3ccc(=[N+](CC)CC)cc-3oc2c1 | 0.98 µM | inactive | –
COC(=O)Cc1csc(=N)n1C | – | – | pKa at 2000 µM [5]: 9.77
CSCC[C@H](NC(=O)[C@@H]1CCCN1C(=O)CNC(=O)[C@H](CCCCN)NC(=O)[C@H](Cc1cnc[nH]1)NC(=O)[C@H](CO)NC(=O)[C@H](CC(C)C)NC(=O)[C@H](CCCNC(=N)N)NC(=O)[C@@H]1CCCN1C(=O)[C@H](CCCNC(=N)N)NC(=O)[C@H](CCC(N)=O)NC(=O)[C@H](CCCNC(=N)N)NC(=O)[C@H](CCCNC(=N)N)NC(=O)[C@H](Cc1ccccc1)NC(=O)[C@@H](N)CCCCN)C(=O)N1CCC[C@H]1C(=O)N[C@@H](Cc1ccccc1)C(=O)O | – | – | Activity [6]: Active; Ki [7]: > 100 µM; inhibition [3]: Dose-dependent effect; IC50 (Apelin receptor [8]): 0.0014 µM; Imax [4]: 85%; half-life at 5 µM [9]: 0.0767 h
CCN(CC)c1ccc2c(-c3ccc(S(=O)(=O)NCCCCCCCCCCCCNC(=O)NCCCC[C@H](NC(=O)Cc4csc(=N)n4C)C(=O)N[C@@H](Cc4cn(Cc5ccccc5)cn4)C(=O)NC4CC[N+](C)(C)CC4)cc3S(=O)(=O)O)c3ccc(=[N+](CC)CC)cc-3oc2c1 | 3 µM | – | –
CCN(CC)c1ccc2c(-c3ccc(S(=O)(=O)NCCCCNCCCC[C@H](NC(=O)Cc4csc(=N)n4C)C(=O)N[C@@H](Cc4cn(Cc5ccccc5)c[n+]4C)C(=O)NC4CCN(C)CC4)cc3S(=O)(=O)O)c3ccc(=[N+](CC)CC)cc-3oc2c1 | > 100 µM | – | –
CCN(CC)c1ccc2c(-c3ccc(S(=O)(=O)NCCCC[C@H](NC(=O)Cc4csc(=N)n4C)C(=O)N[C@@H](Cc4cn(Cc5ccccc5)c[n+]4C)C(=O)NC4CCN(Cc5ccccc5)CC4)cc3S(=O)(=O)[O-])c3ccc(=[N+](CC)CC)cc-3oc2c1 | 0.27 µM | Active | –
CCN(CC)c1ccc2c(-c3ccc(S(=O)(=O)NCCCCCCCCCCCCNC(=O)NCCCC[C@H](NC(=O)Cc4csc(=N)[nH]4)C(=O)N[C@@H](Cc4cn(Cc5ccccc5)cn4)C(=O)NC4CCN(C)CC4)cc3S(=O)(=O)[O-])c3ccc(=[N+](CC)CC)cc-3oc2c1 | 9 µM | – | –
CCN(CC)c1ccc2c(-c3ccc(S(=O)(=O)NCCCCCCCCCCCCNC(=O)NCCCC[C@H](NC(=O)Cc4csc(=N)n4C)C(=O)N[C@@H](Cc4cn(Cc5ccccc5)c[n+]4C)C(=O)NC4CCN(C)CC4)cc3S(=O)(=O)O)c3ccc(=[N+](CC)CC)cc-3oc2c1 [listing 2 of 2 here] | 0.69 µM | – | Ki [7]: 2.23 µM; IC50 (Apelin receptor [8]): 4.3 µM; half-life at 5 µM [9]: > 10 h
CCN(CC)c1ccc2c(-c3ccc(S(=O)(=O)NCCCC[C@H](NC(=O)Cc4csc(=N)n4C)C(=O)N[C@@H](Cc4cn(Cc5ccccc5)c[n+]4C)C(=O)N[C@@H](C)C(N)=O)cc3S(=O)(=O)O)c3ccc(=[N+](CC)CC)cc-3oc2c1 | 0.97 µM | – | –
CCN(CC)c1ccc2c(-c3ccc(S(=O)(=O)NCCCCCCCCCCCCNC(=O)NCCCC[C@H](NC(=O)Cc4csc(=N)n4C)C(=O)N[C@@H](Cc4cn(Cc5ccccc5)c[n+]4C)C(=O)NC4CC[N+](C)(C)CC4)cc3S(=O)(=O)O)c3ccc(=[N+](CC)CC)cc-3oc2c1 | 1.4 µM | – | –
CCN(CC)c1ccc2c(-c3ccc(S(=O)(=O)NCCCCCCCCCCCCNC(=O)NCCCC[C@H](NC(=O)Cc4csc(=N)n4C)C(=O)N[C@@H](Cc4cn(Cc5ccccc5)cn4)C(=O)NC4CCN(C)CC4)cc3S(=O)(=O)[O-])c3ccc(=[N+](CC)CC)cc-3oc2c1 | 1.5 µM | – | –
CCN(CC)c1ccc(C(=C2C=CC(=[N+](CC)CC)C=C2)c2ccc(S(=O)(=O)NCCCC[C@H](NC(=O)Cc3csc(=N)n3C)C(=O)N[C@@H](Cc3cn(Cc4ccccc4)c[n+]3C)C(=O)NC3CCN(C)CC3)cc2S(=O)(=O)[O-])cc1.O=C(O)C(F)(F)F.O=C(O)C(F)(F)F.O=C([O-])C(F)(F)F | 0.089 µM | inactive | Ki [7]: 98 µM; inhibition [3]: Dose-dependent effect; IC50 (Apelin receptor [8]): 1.7 µM; Imax [4]: 69%; half-life at 5 µM [9]: > 10 h
COC(=O)Cc1csc(N)n1 | – | – | pKa at 2000 µM [5]: 4.83
CCN(CC)c1ccc2c(-c3ccc(S(=O)(=O)NCCCC[C@H](NC(=O)Cc4csc(=N)[nH]4)C(=O)N[C@@H](Cc4cn(Cc5ccccc5)c[n+]4C)C(=O)NC4CCN(C)CC4)cc3S(=O)(=O)[O-])c3ccc(=[N+](CC)CC)cc-3oc2c1 | 0.85 µM | inactive | –
CCN(CC)c1ccc2c(-c3ccc(S(=O)(=O)NCCCC[C@H](NC(=O)Cc4csc(=N)n4C)C(=O)N[C@@H](C)C(=O)NC4CCN(C)CC4)cc3S(=O)(=O)[O-])c3ccc(=[N+](CC)CC)cc-3oc2c1 | 0.45 µM | inactive | –
CCN(CC)c1ccc2c(-c3ccc(S(=O)(=O)NCCCC[C@H](NC(=O)Cc4csc(=N)n4C)C(=O)N[C@@H](Cc4cn(Cc5ccccc5)c[n+]4C)C(=O)NC4CCN(C)CC4)cc3S(=O)(=O)[O-])c3ccc(=[N+](CC)CC)cc-3oc2c1.O=C(O)C(F)(F)F.O=C(O)C(F)(F)F.O=C([O-])C(F)(F)F | 0.4 µM | Active | Ki [7]: > 1000 µM; inhibition [3]: Dose-dependent effect; IC50 (Apelin receptor [8]): 3 µM; Imax [4]: 77%; half-life at 5 µM [9]: > 10 h
CCN(CC)c1ccc2c(-c3ccc(S(=O)(=O)NCCCCCCNC(=O)NCCCC[C@H](NC(=O)Cc4csc(=N)n4C)C(=O)N[C@@H](Cc4cn(Cc5ccccc5)c[n+]4C)C(=O)NC4CCN(C)CC4)cc3S(=O)(=O)[O-])c3ccc(=[N+](CC)CC)cc-3oc2c1 | 0.31 µM | Active | –
